From article PMC11397358, “Cytotoxic Activity of Novel GnRH Analogs Conjugated with Mitoxantrone in Ovarian Cancer Cells” (Molecules, 2024)

Legend:
SKOV-3 cells [1] = assay: Cell proliferation (MTT) assay; assay type: cell-based, human; details: over time (days 2–4) and at various concentrations
Description: The antiproliferative effects of GnRH-mitoxantrone conjugates, Con-3, and Con-7, were evaluated using the SKOV-3 cells. The Con-3 and Con-7 conjugates decreased the proliferation rate of SKOV-3 cells in a dose-dependent manner on days 2, 3, and 4 (Figure 3A–C).
Figure 3 Antiproliferative activity of the GnRH analogs. Decrease in the proliferation rate of the SKOV3 cells after their treatment with increasing concentrations of Con-3, Con-7, Con-P1 or Con-P2 for 2 days (A), 3 days (B) and 4 days (C) at 37 °C. At the end of the incubation, the cells were further incubated with 0.5 mg/mL MTT for 4 h at room temperature and the formed purple formazan crystals were quantified by measuring absorbance at 594 nm. The means ± S.E (triplicate determination) are shown from a representative experiment performed 3 times with similar results. The proliferation rates of cells treated with 1 μΜ of GnRH analogs were used to plot the graph D which depicts the decrease in cell growth over the incubation time (D). Statistical analysis was performed using one-way ANOVA.
At the end of the incubation, the cells were further incubated with 0.5 mg/mL MTT for 4 h at room temperature and the formed purple formazan crystals were quantified by measuring absorbance at 594 nm. The means ± S.E (triplicate determination) are shown from a representative experiment performed 3 times with similar results. […] Statistical analysis was performed using one-way ANOVA.
SKOV-3 cells (kindly provided by Prof. Dimitrios Mavroudis, University of Crete) were seeded into 96-well plates at a density of 6000 cells/well, in triplicates, and incubated overnight in Dulbecco’s modified Eagle’s medium/F12 (DMEM/F12) (1:1), containing 3.15 g/L glucose and 10% bovine calf serum (BCS, HyClone), at 37 °C and 5% CO2. At the end of the incubation, the culture medium was replaced with a fresh one containing 3.15 g/L glucose and 2% BCS, with or without increasing concentrations of GnRH analogs or mitoxantrone (0.1 nM–10 µM), and the cells were further incubated at 37 °C and 5% CO2 for 2, 3 and 4 days. Subsequently, (3-(4,5-dimethylthiazol-2-yl)-2,5- diphenyl tetrazolium bromide) (MTT) was added at a final concentration of 0.5 mg/mL, and the mixtures were incubated for 4 h at room temperature in the dark, allowing the viable cells to reduce the MTT to formazan crystals. The supernatants were removed, and the purple formazan crystals were dissolved in isopropanol containing 4% HCl (100 μL/well) by mixing thoroughly for 30 min in the dark, before the quantification of the absorbance at 594 nm using a Dynatech MicroElisa reader (Chantilly, VA, USA). The percentage of the proliferation rate (% proliferation rate) treated with a GnRH analog was determined based on the following equation: % proliferation rate = (absorbance of cells treated with a GnRH analog/absorbance of untreated cells) × 100. The % viability of the untreated cells (control) was defined as 100%. The % viabilities were analyzed by nonlinear regression analysis, using Prism 8.0 (GraphPad Software, Prism 8.0, San Diego, CA, USA).

SKOV-3 cells [2] = assay: Annexin V / propidium iodide apoptosis assay by flow cytometry; assay type: cell-based, human; details: 1 μM, 2, 3 and 4 days; flow cytometry
Text: We next evaluate the abilities of Con-3 and Con-7 at concentrations of 1 μΜ to induce cell death by determining the percentages of live, apoptotic and necrotic cells after treatment of SKOV-3 cells with the GnRH conjugates. As shown in Figure 5 and Figures S1–S3 on day 2, the majority of SKOV-3 cells were viable (Q4 quadrant), treated either with Con-3, Con-7 or mitoxantrone, whereas the percentage of apoptotic cells (late or early apoptotic) (Q1, Q2 quadrants) was only 10.1%, 10.87% and 13.1% after treatment with Con-3, Con-7 or mitoxantrone, respectively. […] Cell viability further decreased on day 4 with a concomitant increase in apoptosis. Specifically, the percentage of apoptotic cells was 53.5%, 59.6% and 54.3% after treatment with Con-3, Con-7 or mitoxantrone (Figure 5 and Figures S7–S9). In all phases, the percentage of the necrotic and late apoptotic cells (Q3 quadrant) was very small.
Figure 5 Determination of viability, apoptosis, or necrosis of SKOV-3 cells after their treatment with 1 μM Con-3, Con-7, or mitoxantrone for 2, 3, and 4 days at 37 °C. At the end of the incubation the cells were further incubated in binding buffer supplied by Biotium, (CF488A Apoptosis Detection kit) and analyzed on a flow cytometer (excitation 488 nm), in the FITC channel (filter 530 nm) for detection of the Annexin V-positive cellsand in the propidium iodide, or PI, channel (filter 616 nm) for detection of the PI-positive cells. The figures are from a representative experiment performed three times with similar results. A higher resolution of the images in Figure 5 is provided in the Supplementary Material (Figures S1–S9). TEXT PRINTED IN THE PICTURE: Con-3: Q3: 4,19 (Day 2); Q2: 7,12 (Day 2); Q4: 85,7 (Day 2); Q1: 2,98 (Day 2); Q3: 5,31 (Day3); Q2: 19,5 (Day3); Q4: 58,0 (Day3); Q1: 17,1 (Day3); Q3: 3,54 (Day4); Q2: 17,1 (Day4); Q4: 43,0 (Day4); Q1: 36,4 (Day4) | Con-7: Q3: 6,31 (Day 2); Q2: 7,74 (Day 2); Q4: 82,8 (Day 2); Q1: 3,13 (Day 2); Q3: 8,11 (Day3); Q2: 19,8 (Day3); Q4: 56,8 (Day3); Q1: 15,3 (Day3); Q3: 3,48 (Day4); Q2: 19,7 (Day4); Q4: 36,9 (Day4); Q1: 39,9 (Day4) | Mitoxantrone: Q3: 6,49 (Day 2); Q2: 9,40 (Day 2); Q4: 80,4 (Day 2); Q1: 3,67 (Day 2); Q3: 7,13 (Day3); Q2: 18,9 (Day3); Q4: 61,0 (Day3); Q1: 13,1 (Day3); Q3: 2,72 (Day4); Q2: 17,3 (Day4); Q4: 43,0 (Decimal sign as read) (Day4); Q1: 37,0 (Day4) DOUBTS OF THE COPYIST ABOUT THIS PICTURE: All quadrant values: the print is very small, and the decimal sign may be a comma or a point in every value / Con-3, Day 2, Q4: 85,7 or 86,7 / Con-3, Day 2, Q1: 2,98 or 2,96 / Con-3, Day3, Q3: 5,31 or 6,31 / Con-3, Day3, Q2: 19,5 or 19,6 / Con-3, Day3, Q4: 58,0 or 56,0 / Con-3, Day4, Q3: 3,54 or 3,64 / Con-3, Day4, Q1: 36,4 or 38,4 / Con-7, Day 2, Q3: 6,31 or 8,31 / Con-7, Day 2, Q4: 82,8 or 82,6 / Con-7, Day 2, Q1: 3,13 or 3,15 / Con-7, Day3, Q3: 8,11 or 6,11 / Con-7, Day3, Q2: 19,8 or 19,6 / Con-7, Day3, Q4: 56,8 or 58,8 / Con-7, Day3, Q1: 15,3 or 15,8 / Con-7, Day4, Q3: 3,48 or 3,46 / Con-7, Day4, Q4: 36,9 or 38,9 / Con-7, Day4, Q1: 39,9 or 38,9 / Mitoxantrone, Day 2, Q3: 6,49 or 8,49 / Mitoxantrone, Day 2, Q2: 9,40 or 8,40 / Mitoxantrone, Day 2, Q4: 80,4 or 60,4 / Mitoxantrone, Day 2, Q1: 3,67 or 3,87 / Mitoxantrone, Day3, Q2: 18,9 or 16,9 / Mitoxantrone, Day3, Q4: 61,0 or 81,0 / Mitoxantrone, Day3, Q1: 13,1 or 15,1 […]
SKOV-3 cells were seeded into 12-well plates at a density of 50,000 cells/well and incubated overnight in DMEM/F12 (1:1) containing 3.15 g/L glucose and 10% BCS, at 37 °C and 5% CO2. At the end of the incubation, the culture medium was replaced with a fresh one containing 3.15 g/L glucose and 2% BCS, with or without GnRH analogs or mitoxantrone at a concentration of 1 μΜ, and the cells were further incubated at 37 °C and 5% CO2 for 2, 3 and 4 days. […]

human GnRH-R = molecular target: T1, human GnRH-R (Homo sapiens, UniProt P30968); assay: Calcium-based (fura-2) kinetic assay of GnRH-R agonism; assay type: cell-based; details: HEK293 cells transiently transfected with human GnRH-R; fura-2 ratio, 96-well, Flexstation 3; experiments performed a minimum of three times; read-out: EC50 for increase in intracellular [Ca2+]
T1 construct: host or cells: HEK293 (ATCC CRL-1573)
T1 sequence (P30968 1-328): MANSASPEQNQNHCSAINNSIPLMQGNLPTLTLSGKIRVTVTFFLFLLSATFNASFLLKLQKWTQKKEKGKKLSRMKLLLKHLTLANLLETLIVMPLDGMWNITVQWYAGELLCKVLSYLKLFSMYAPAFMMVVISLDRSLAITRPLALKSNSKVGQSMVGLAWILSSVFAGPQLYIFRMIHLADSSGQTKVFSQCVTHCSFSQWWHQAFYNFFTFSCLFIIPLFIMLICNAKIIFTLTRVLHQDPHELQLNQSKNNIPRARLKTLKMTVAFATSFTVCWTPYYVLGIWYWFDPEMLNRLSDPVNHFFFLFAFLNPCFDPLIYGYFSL
Description: For this purpose, fura-2-based kinetic assays to monitor the [Ca^2+] were performed in real-time using suspensions of HEK293 cells transiently transfected with the human GnRH-R (Figure 2A–I).
HEK293 cells transfected with the human GnRH-R served as a platform with which to test for agonist actions of individual test compounds. These cells were loaded with the ratiometric Ca^2+ indicator fura-2 so that the change in intracellular [Ca^2+] in response to agonist stimulation could be monitored in real time in a 96-well format. For these assays, the individual test compounds were administered at the 100 s time point.
Two days post-transfection, the HEK293 cells were harvested via trypsinization to obtain single-cell suspensions that were plated at 80% density on rat tail collagen-coated 96-well Costar 3904 plates for loading with the ratiometric Ca^2+ indicator fura-2. Measurements of the intracellular [Ca^2+] were performed using a Flexstation 3 microplate reader (Molecular Devices, Sunnyvale, CA, USA). Briefly, test solutions containing GnRH-R agonists were administered to individual wells of a 96-well plate using the automated pipetting feature of the Flexstation under computer control. […] Emitted light was detected at 505/15 nm, and the ratio of emission light intensity due to excitation at 335/9 and 375/9 nm was calculated. […]

EC50 (human GnRH-R) [nM]	SMILES	effect on proliferation of SKOV-3 cells, in words (SKOV-3 cells [1])	effect on viability of SKOV-3 cells, in words (SKOV-3 cells [2])
	CCNC(=O)[C@@H]1CCCN1C(=O)[C@H](CCCNC(=N)N)NC(=O)[C@H](CC(C)C)NC(=O)[C@@H](CCCCN)NC(=O)[C@H](Cc1ccc(O)cc1)NC(=O)[C@H](CO)NC(=O)[C@H](Cc1c[nH]c2ccccc12)NC(=O)[C@H](Cc1c[nH]cn1)NC(=O)[C@@H]1CCC(=O)N1 [Con-P1]	did not affect the proliferation of SKOV-3 cells	did not affect the viability of SKOV-3 cells
0.67	CCNC(=O)[C@@H]1CCCN1C(=O)[C@H](CCCNC(=N)N)NC(=O)[C@H](CC(C)C)NC(=O)[C@@H](CS)NC(=O)[C@H](Cc1ccc(O)cc1)NC(=O)[C@H](CO)NC(=O)[C@H](Cc1c[nH]c2ccccc12)NC(=O)[C@H](Cc1c[nH]cn1)NC(=O)[C@@H]1CCC(=O)N1 [Con-P2]		
